Measurements as given in patent publication EP4410284A1, “COMPOUND AND METHOD FOR THE TREATMENT OF ZELLWEGER SPECTRUM DISORDER” (Apteeus, priority 2023, dated 2024).
Read-outs that look alike come from different tables or passages of the source.

Assays:
GM16513 cells [1] = type: cell-based; conditions: 3 days, PI positive cells (dead cells)
PEX405 cells [2] = test: Catalase import immunofluorescence, high-content screening (% importing cells); type: cell-based, human; conditions: PEX405 cells, 3 days
PEX405 cells [3] = type: cell-based; conditions: 3 days, PI positive cells (dead cells)
GM16513 cells [4] = test: Catalase import immunofluorescence, high-content screening (% importing cells); type: cell-based, human; conditions: GM16513 cells, 3 days; for EC50 / Emax: Homo sapiens, 72 h, dose response with 6 concentrations; for EC50: read-out: EC50; for Emax: read-out: Max Efficacy (% Importing cells)

| Compound | % PI+ cells (GM16513 cells [1]; 1.3 µM) | % PI+ cells (GM16513 cells [1]; 10 µM) | % PI+ cells (PEX405 cells [3]; 1.3 µM) | % PI+ cells (PEX405 cells [3]; 10 µM) | EC50 (GM16513 cells [4]) | % Importing cells (PEX405 cells [2]; 1.3 µM) | % Importing cells (PEX405 cells [2]; 10 µM) | % Importing cells (GM16513 cells [4]; 1.3 µM) | % Importing cells (GM16513 cells [4]; 10 µM) | Emax (GM16513 cells [4]) |
| --- | --- | --- | --- | --- | --- | --- | --- | --- | --- | --- |
| Nc1ccccc1NC(=O)c1ccc(Cn2cc(-c3ccc(C(=O)NCc4cccnc4)cc3)nn2)cc1 [Nampt-IN-3] | 3% | 3% | 1% | 4% | – | 33% | 31% | 80% | 74% | – |
| COc1ccc(-c2nc(N3CCOCC3)c3sc(CN(C)c4ncc(C(=O)NO)cn4)cc3n2)cn1 [Fimepinostat] | 25% | 29% | 43% | 55% | 10 nM | 25% | 4% | 81% | 61% | 92.5% |
| CCN1CCN(C(c2cccnc2)c2cc(Cl)c3cccnc3c2O)CC1 (stereo not shown) [BRD 4354] | 1% | 3% | 0% | 3% | – | 4% | 10% | 21% | 30% | – |
| O=C1CCc2c(ccc3ccccc23)O1 [Splitomicin] | 1% | 1% | 0% | 1% | – | 5% | 5% | 33% | 25% | – |
| O=C(CCCCCCC(=O)NO)NO [Suberoyl bis-hydroxamic acid] | 1% | 2% | 1% | 1% | – | 4% | 10% | 13% | 57% | – |
| O=C(CCCCCCC(=O)Nc1ccc([C@H]2O[C@@H](CSc3nc(-c4ccccc4)c(-c4ccccc4)o3)C[C@@H](c3ccc(CO)cc3)O2)cc1)NO [Tubacin] | – | 4% | – | 4% | – | – | 5% | – | 39% | – |
| O=C(CCCCCN1C(=O)c2cccc3cccc(c23)C1=O)NO [Scriptaid] | 2% | 8% | 1% | 6% | – | 15% | 16% | 57% | 92% | – |
| Oxamflatin | – | – | – | – | – | 33% | 15% | 99% | 59% | – |
| O=C(/C=C/c1ccc(O)c(O)c1)c1ccc(O[C@@H]2O[C@H](CO)[C@@H](O)[C@H](O)[C@H]2O)c(O)c1O [Marein] | 1% | 77% | 0% | 74% | – | 5% | 4% | 20% | 22% | – |
| O=C(NO)C(c1ccc(-c2ncc(C(F)(F)F)cn2)cc1)c1ccccc1F (stereo not shown) [CHDI-390576] | – | – | – | – | – | 2% | 0% | 10% | 4% | – |
| O=C(NO)c1ccc(CC(=O)N(CCO)c2ccccc2)cc1 [HPOB] | 1% | 1% | 1% | 1% | – | 6% | 13% | 29% | 55% | – |
| Cn1cc(CNCC2CCN(c3ncc(C(=O)NO)cn3)CC2)c2ccccc21 [Quisinostat] | 17% | 38% | 24% | 53% | 30 nM | 40% | 26% | 98% | 86% | 95% |
| HDACs/mTOR Inhibitor 1 | 14% | 24% | 8% | 40% | – | 9% | 33% | 77% | 96% | – |
| COc1cc(C=CC(=O)O)cc(OC)c1O (stereo in doubt) [Sinapinic acid] | – | – | – | – | – | 3% | 3% | 21% | 18% | – |
| O=C(NO)c1cnc(N2C[C@@H]3[C@H](C2)[C@H]3NCc2ccc3cc(F)ccc3n2)nc1 [Nanatinostat] | 12% | 37% | 15% | 54% | 50 nM | 14% | 0% | 88% | 78% | 93% |
| CC(=O)N[C@@H](CCCCN)C(=O)Nc1ccc2c(C)cc(=O)oc2c1 [Ac-Lys-AMC] | 1% | 1% | 0% | 0% | – | 3% | 1% | 18% | 14% | – |
| O=C(CCCCCCNC(=O)c1cnc(N(c2ccccc2)c2ccccc2Cl)nc1)NO [Citarinostat] | 1% | 4% | 0% | 2% | 3200 nM | 9% | 53% | 47% | 90% | 93% |
| CN1CCc2c(c3ccccc3n2Cc2ccc(C(=O)NO)cc2)C1.Cl [Tubastatin A (Hydrochloride), Tubastatin A] | 2% | 1% | 1% | 1% | – | 3% | 6% | 12% | 37% | – |
| Nc1ccccc1NC(=O)CCCCCC(=O)Nc1ccccc1 [NKL 22] | 1% | 4% | 0% | 1% | – | 7% | 13% | 28% | 55% | – |
| CN1CCc2c(c3ccccc3n2Cc2ccc(C(=O)NO)cc2)C1 [Tubastatin A] | 1% | 1% | 1% | 1% | – | 5% | 6% | 26% | 32% | – |
| Cc1ccc(C(=O)NCCCCCC(=O)Nc2ccccc2N)cc1 [RG2833] | 1% | 3% | – | – | – | – | – | – | – | – |

Further lines, with some results ahead:

| % PI+ cells (GM16513 cells [1]; 1.3 µM) | % PI+ cells (GM16513 cells [1]; 10 µM) | % PI+ cells (PEX405 cells [3]; 1.3 µM) | % PI+ cells (PEX405 cells [3]; 10 µM) | EC50 (GM16513 cells [4]) | Compound | % Importing cells (PEX405 cells [2]; 1.3 µM) | % Importing cells (PEX405 cells [2]; 10 µM) | % Importing cells (GM16513 cells [4]; 1.3 µM) | % Importing cells (GM16513 cells [4]; 10 µM) | Emax (GM16513 cells [4]) |
| --- | --- | --- | --- | --- | --- | --- | --- | --- | --- | --- |
| 1% | 2% | 0% | 1% | – | CCCCNNC(=O)c1ccc(-c2cccc(F)c2F)cc1 [SR-4370] | 5% | 7% | 26% | 30% | – |
| 1% | 7% | 0% | 1% | – | CC1(C)c2cccc(C(=O)NO)c2CN1c1cnc(C(F)(F)F)cn1 [FT895] | 1% | 0% | 14% | 4% | – |
| 1% | 1% | 1% | 2% | – | Nc1ccccc1NC(=O)c1cnccn1 [BG45] | 4% | 5% | 15% | 30% | – |
| 3% | 90% | 0% | 91% | – | Cn1c(/C=C/C(=O)NO)ccc1/C=C/C(=O)c1cccc(F)c1 [MC1568] | 5% | 6% | 25% | 21% | – |
| 2% | 2% | 1% | 1% | – | CC(=O)Nc1ccc(C(=O)Nc2ccc(F)cc2N)cc1 [BRD3308] | 4% | 5% | 12% | 16% | – |
| 1% | 1% | 0% | 0% | – | O=C(c1ccc(Cl)cc1Cl)n1nnc2ccccc21 [ITSA-1] | 3% | 1% | 9% | 12% | – |
| 1% | 1% | 1% | 1% | – | CC(C)(CNC(=O)c1cccc(-c2noc(C(F)(F)F)n2)c1)c1coc(-c2ccccc2)n1 [TMP195] | 2% | 1% | 13% | 8% | – |
| 1% | 3% | 1% | 1% | – | O=C(NO)c1cnc(NC2(c3ccccc3)CC2)nc1 [ACY-738] | 5% | 31% | 31% | 85% | – |
| 1% | 38% | 1% | 55% | – | Nc1ccc(-c2cccs2)cc1NC(=O)c1ccc2nc(N3CCNCC3)ccc2c1 [ACY-957] | 16% | 13% | 74% | 0% | – |
| 2% | 7% | 0% | 8% | – | Cc1nn(C)cc1CN1CCC(c2ccc(C(=O)Nc3ccccc3N)cc2)CC1 [CXD101] | 19% | 4% | – | – | – |
